# Columns and labels:
# [1] = system: UPF1; assay: Western blot of UPF1 cleavage and phosphorylation in MCF7 cells; format: cell-based, human
# Method: MCF7 cells either were (top line) or were not (bottom line) pretreated with 5 μM doxorubicin for 1 h before addition of 3 μg ml^−1 actinomycin D to halt transcription. Cells were collected at the indicated times after actinomycin D addition. […] Error bars=S.E.M, n==4 independent biological quadruplicates. […] HeLa Tet-off cells were transfected with plasmids encoding human β-Gl Norm mRNA and MUP mRNA or β-Gl Ter mRNA and MUP mRNA. β-Gl Norm and β-Gl 39 Ter mRNA transcription occurs under the agency of the non-stress-responsive Tet-off promoter. Cells were either pretreated with nothing (top), 50 μM doxorubicin for 1 h (middle) or 50 μg ml^−1 puromycin for 3 h (bottom) before transcriptional shut-off with 2 μg ml^−1 doxycycline. Cell aliquots were removed at the indicated “chase” time points, and RT-qPCR was used to assess the remaining levels of β-Gl Norm and β-Gl Ter mRNAs, each after normalization to MUP mRNA.
# UPF1 CP may result from cleavage of endogenous UPF1 or the transfected construct, but the use of anti-FLAG allows unambiguous assignment of UPF1-FLAG CP as derived from MYC-UPF1-FLAG. α, anti; h, hour(s). […] To serve as molecular weight standards for UPF1 CP, lysates of MCF7 cells transiently expressing a UPF1-FLAG protein encompassing the residues specified were also analyzed. […] The D37 cleavage site encompassing P4-P1 residues is boxed. […] Immunoblots are representative of at least 2 independent experiments.
# Cells were lysed, and protein was isolated using hypotonic buffer that consists of 10 mM Tris-C1, pH 7.4, 10 mM NaCl, 2 mM EDTA, 0.5% Triton X-100, 2 mM benzamidine, 1 mM PMSF, NEM (50 μg/mL), 1× phosphatase inhibitor cocktail (Roche), and 1× protease inhibitor cocktail (Roche; Basel, Switzerland). After 10 minutes of incubation at 4° C., NaCl was added to 150 mM, and lysates were cleared by centrifugation. Proteins were resolved using SDS-PAGE, transferred to Hybond ECL nitrocellulose (GE), and probed using antibody that recognizes one of the following: UPF1(1-416) (1:2000^8), p-UPF1 S1116 (1:1000; Millipore 07-1016; Billerica, Mass.), p-UPF1 S1089 (1:1000; Millipore 07-1015), Calnexin (1:2000; Enzo Life Sciences ADISPA860; Farmingdale, N.Y.), UPF2 (1:200; Santa Cruz Biotechnology C18 20227; Dallas, Tex.), UPF3× and 3 (1:1000^8), MLN51 (1:1000; Bethyl Laboratories A302-471; Montgomery, Tex.), GAPDH (1:200; Santa Cruz Biotechnology 25778), CBP80 (1:1000; Bethyl Laboratories A301-793), SMG5 (1:1000; Abcam 33033; Cambridge, United Kingdom), SMG6 (1:1000; Abcam 57539), SMG7 (1:1000; Bethyl Laboratories 302-170A), SMG1 (1:1000; Cell Signaling D42D5; Danvers, Mass.), Cleaved Caspase 3 (1:1000; Cell Signaling 9664), Cleaved Caspase 9 (1:1000; Cell Signaling 7237), PARP (1:1000; Cell Signaling 9542), Cleaved PARP (1:200; Santa Cruz Biotechnology sc56196) PLC-γ1 (1:200; Santa Cruz Biotechnology 58407), α-Tubulin (1:1000; Cell Signaling 3873P), FLAG (1:5000; Sigma, clone M2 a5982), HA (1:5000; Roche, clone 3F10 12013819001), or MYC (1:1000; Cell Signaling, clone 9B110 2276). Immunoreactivity was assessed using SuperSignal West Pico or Femto (Pierce Biotechnology; Waltham, Mass.).
# Biochemical changes to the key NMD factor, UPF1, that correlate with doxorubicin treatment (FIG. 1c), were examined. MCF7 cells were exposed to doxorubicin (5 μM) for varying amounts of time and cell lysates were analyzed using western blotting and an in-house generated polyclonal rabbit serum raised against the N-terminal 416 amino acids of human UPF1. […]
# [2] = system: UPF1; assay: Western blot of UPF1 CP generation in Daudi B lymphoblasts; format: cell-based, human; conditions: 40 ng/mL TNF-α or 2 μg/mL doxorubicin
# Method: (§1) FIG. 10b is essentially as in a, but using lysates of HEK293T cells exposed to 1 μM staurosporine. FIG. 10c is essentially as in a, but using lysates of human Daudi B lymphoblasts exposed to 40 ng/mL TNF-α or 2 μg/mL doxorubicin. FIG. 10d is essentially as in a, but using lysates of human Jurkat T cells exposed to 1 μM staurosporine. FIG. 10e is essentially as in a, but using lysates of canine MDCK cells exposed to 2 μM staurosporine. FIG. 10f is essentially as in a, but using lysates of bovine MDBK cells exposed to 2 μM staurosporine. FIG. 10g is essentially as in a, but using lysates of Chinese Hamster Ovary (CHO) cells exposed to 2 μM staurosporine. FIG. 10h is essentially as in a, but using lysates of African green monkey COS-7 cells exposed to 2 μM staurosporine or 2 μg/mL doxorubicin. At least two apoptotic inducers were used for each cell line, and at least two cell lines were tested with each apoptotic inducer.
# Cells were lysed, and protein was isolated using hypotonic buffer that consists of 10 mM Tris-C1, pH 7.4, 10 mM NaCl, 2 mM EDTA, 0.5% Triton X-100, 2 mM benzamidine, 1 mM PMSF, NEM (50 μg/mL), 1× phosphatase inhibitor cocktail (Roche), and 1× protease inhibitor cocktail (Roche; Basel, Switzerland). […] Immunoreactivity was assessed using SuperSignal West Pico or Femto (Pierce Biotechnology; Waltham, Mass.). […]
# [3] = system: UPF1; assay: Western blot of UPF1 CP generation in COS-7 cells; format: cell-based, African green monkey; conditions: COS-7, 2 μM staurosporine or 2 μg/mL doxorubicin
# Method: as §1
# Cells were lysed, and protein was isolated using hypotonic buffer that consists of 10 mM Tris-C1, pH 7.4, 10 mM NaCl, 2 mM EDTA, 0.5% Triton X-100, 2 mM benzamidine, 1 mM PMSF, NEM (50 μg/mL), 1× phosphatase inhibitor cocktail (Roche), and 1× protease inhibitor cocktail (Roche; Basel, Switzerland). […] Immunoreactivity was assessed using SuperSignal West Pico or Femto (Pierce Biotechnology; Waltham, Mass.).
smiles,measurement,setting,value
"COc1cccc2c1C(=O)c1c(O)c3c(c(O)c1C2=O)C[C@@](O)(C(=O)CO)C[C@@H]3O[C@H]1C[C@H](N)[C@H](O)[C@H](C)O1 [doxorubicin, Doxorubicin]",time at which UPF1 phosphorylation (S1116) levels diminish,"[1]; MCF7, 5 μM doxorubicin",≤ 5 h
same,time at which two additional UPF1 bands of greater mobility were resolved,"[1]; MCF7, 5 μM doxorubicin",≤ 5 h
same,time at which higher-mobility UPF1 species were generated,"[1]; MCF7, 50 μM doxorubicin",≤ 2 h
same,time of production of the PARP cleavage product,"[1]; MCF7, 50 μM doxorubicin",8 h
same,UPF1 CP level relative to uncleaved UPF1,"[1]; MCF7 stably transduced with MYC-UPF1-FLAG WT, 5 μM doxorubicin 16 h",about one-third the level of uncleaved UPF1
same,UPF1 CP generation,[2],led to generation of the UPF1 CP prior to maximal PARP cleavage
same,UPF1 CP generation,[3],yielded a UPF1 CP

# Source: patent publication US20160279110A1, “COMPOSITIONS AND METHODS FOR TREATING CANCER” (UNIVERSITY OF ROCHESTER, priority 2015, published 2016)
